Results from patent US9295732B2, “Conjugated TLR7 and/or TLR8 and TLR2 polycationic agonists” (CAYLA, priority 2013, dated 2016).
Values joined by “and” are separate entries in the source; they are usually repeats but may differ in a detail not shown here. Identical values can stand only once.

Legend:
[1] = target: T1, human TLR2 (Homo sapiens, UniProt O60603); assay: HEK-Blue hTLR2 NF-κB/AP-1 SEAP reporter assay; type: cell-based; settings: HEK-Blue hTLR2 cells, 10 μg/mL to 10 pg/ml, 24 hours, OD at 655 nm, FIG. 3
T1 construct: host or cells: HEK293 (HEK-Blue™ hTLR2)
Description: (§1) Cell-based assays were carried out using TLR7 and TLR2 reporter cell lines (InvivoGen). The reporter cell lines are engineered HEK293 cells, a human embryonic kidney cell line (ATCC, CRL-1573) that stably express either murine TLR7 (HEK-Blue™ mTLR7) or human TLR7 (HEK-Blue™ hTLR7) or human TLR2 (HEK-Blue™ hTLR2) with an NF-κB-inducible secreted embryonic alkaline phosphatase (SEAP) as the reporter gene. The SEAP reporter gene is under the control of the NF-κB and AP-1-inducible promoter, which, upon treatment with a corresponding TLR ligand and activation of NF-κB and AP-1, induces the production of SEAP. Detection of SEAP is measured following culturing cells in HEK-Blue™ Detection media (InvivoGen). HEK-Blue™ Detection contains a SEAP substrate that when hydrolysed by SEAP produces a colorimetric change allowing for detection of SEAP as the protein is secreted. […] These assays were carried out using RAW-Blue™ Cells (InvivoGen), derived from RAW 264.7 mouse leukemic monocyte macrophage cell line (ATCC, CRL 2278) stably overexpressing a NF-B/AP-1 inducible SEAP reporter constructs.
(§2) To perform the assay, cells were seeded on 96 well microliter plates at 50,000 or 100,000 cells per well for HEK-Blue™ Cells and RAW-Blue™ Cells respectively, and cultured at 37° C. in the presence of the conjugated compounds The TLR7-TLR2 polyamine molecules were prepared as follows: First, stock solutions of the conjugated compounds of the invention were prepared in ethanol or water to a concentration of 10 mg/ml.
(§3) The working dilutions of the conjugated TLR7-TLR2 polyamine agonists made up in water or PBS were directly added to the reporter cell lines at a final concentration ranging from 10 μg/mL to 10 pg/ml and incubated at 37° C. for 24 hours. After 24 hours of incubation, the effect on reporter gene activity was determined by reading the OD at 655 nm using iMark™ Microplate Reader (BIO-RAD).

[2] = test system: plasmid DNA (pDNA); assay: Gel shift (mobility shift) assay of pDNA complexation; type: binding; settings: pDNA:molecule ratio 3:24 (w:w), 0.8% agarose gel, compared to pDNA alone
Description: Then, 10 μl of pDNA:TLR7-TLR2 polyamine molecule complexes and 2 μl of charge buffer were mixed and loaded into wells of a 0.8% agarose gel. Samples were migrated through the gel in TAE buffer under 135 voltage for 21 mins and the migration of the pDNA was visualized following ethidium bromide staining under UV light. The ability of TLR7-TLR2 polyamine molecules to complex/associate with the pDNA was identified by partial or complete retardation of the pDNA migration toward the anode in the gel compared to pDNA alone. […] Ethidium bromide intercalation of pDNA in complex with molecules allowed visualization of complexed pDNA as a smear in the wells of the gel.

[3] = target: T2, murine TLR7 (Mus musculus, UniProt P58681); assay: HEK-Blue mTLR7 NF-κB/AP-1 SEAP reporter assay; type: cell-based; settings: HEK-Blue mTLR7 cells, 10 μg/mL to 10 pg/ml, 24 hours, OD at 655 nm, FIG. 2
T2 construct: host or cells: HEK293 (HEK-Blue™ mTLR7)
T2 sequence (P58681 27-1050): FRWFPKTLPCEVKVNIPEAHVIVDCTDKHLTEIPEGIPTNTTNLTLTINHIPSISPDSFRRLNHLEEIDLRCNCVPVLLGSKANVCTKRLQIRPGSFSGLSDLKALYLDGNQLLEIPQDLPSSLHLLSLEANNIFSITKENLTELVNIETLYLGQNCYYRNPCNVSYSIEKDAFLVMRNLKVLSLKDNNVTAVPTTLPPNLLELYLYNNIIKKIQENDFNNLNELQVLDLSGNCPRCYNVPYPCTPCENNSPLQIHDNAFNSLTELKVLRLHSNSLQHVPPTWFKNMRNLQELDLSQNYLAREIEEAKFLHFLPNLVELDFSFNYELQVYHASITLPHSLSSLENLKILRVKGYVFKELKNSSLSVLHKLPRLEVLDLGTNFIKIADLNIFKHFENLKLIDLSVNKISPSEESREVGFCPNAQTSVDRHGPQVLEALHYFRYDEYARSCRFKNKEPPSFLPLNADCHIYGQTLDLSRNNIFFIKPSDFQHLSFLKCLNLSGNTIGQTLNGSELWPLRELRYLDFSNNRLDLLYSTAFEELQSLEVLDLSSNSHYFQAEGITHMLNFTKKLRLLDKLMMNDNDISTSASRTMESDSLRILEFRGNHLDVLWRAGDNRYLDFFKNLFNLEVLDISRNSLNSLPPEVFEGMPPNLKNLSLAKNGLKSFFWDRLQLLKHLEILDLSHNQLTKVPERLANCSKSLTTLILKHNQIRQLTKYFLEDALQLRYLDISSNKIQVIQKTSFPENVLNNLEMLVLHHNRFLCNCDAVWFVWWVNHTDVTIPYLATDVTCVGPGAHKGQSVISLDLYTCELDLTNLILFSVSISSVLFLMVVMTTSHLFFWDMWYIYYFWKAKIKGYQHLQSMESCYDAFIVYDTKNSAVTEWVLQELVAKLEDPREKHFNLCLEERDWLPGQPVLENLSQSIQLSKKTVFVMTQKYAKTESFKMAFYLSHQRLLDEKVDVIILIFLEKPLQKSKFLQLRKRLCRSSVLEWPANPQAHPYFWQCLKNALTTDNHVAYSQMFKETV
Description: as §1, §2, §3

[4] = Nanoparticle (lipoplex) size by dynamic light scattering; settings: 25° C., triplicate; for Mean Diameter: complexes with pDNA 3:24 (w:w), dynamic light scattering; for PDI: polydispersity index of complexes with pDNA 3:24 (w:w);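 as to all read-outs here: lipoplexes of TLR7-TLR2 polyamine conjugates with plasmid DNA, formed over 30 min at room temperature in serum-free medium or 5% glucose, diameter in nm, PDI dimensionless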
[5] = test system: endogenous TLR2 and TLR7 in RAW-Blue™ Cells; assay: RAW-Blue Cells NF-κB/AP-1 SEAP reporter assay; type: cell-based, mouse; settings: 24 hours, OD at 655 nm, FIG. 4
Description: as §1, §2, §3

[6] = target: T3, human TLR7 (Homo sapiens, UniProt Q9NYK1); assay: HEK-Blue hTLR7 NF-κB/AP-1 SEAP reporter assay; type: cell-based; settings: HEK-Blue hTLR7 cells, 10 μg/mL to 10 pg/ml, 24 hours, OD at 655 nm, FIG. 1
T3 construct: host or cells: HEK293 (HEK-Blue™ hTLR7)
T3 sequence (Q9NYK1 27-1049): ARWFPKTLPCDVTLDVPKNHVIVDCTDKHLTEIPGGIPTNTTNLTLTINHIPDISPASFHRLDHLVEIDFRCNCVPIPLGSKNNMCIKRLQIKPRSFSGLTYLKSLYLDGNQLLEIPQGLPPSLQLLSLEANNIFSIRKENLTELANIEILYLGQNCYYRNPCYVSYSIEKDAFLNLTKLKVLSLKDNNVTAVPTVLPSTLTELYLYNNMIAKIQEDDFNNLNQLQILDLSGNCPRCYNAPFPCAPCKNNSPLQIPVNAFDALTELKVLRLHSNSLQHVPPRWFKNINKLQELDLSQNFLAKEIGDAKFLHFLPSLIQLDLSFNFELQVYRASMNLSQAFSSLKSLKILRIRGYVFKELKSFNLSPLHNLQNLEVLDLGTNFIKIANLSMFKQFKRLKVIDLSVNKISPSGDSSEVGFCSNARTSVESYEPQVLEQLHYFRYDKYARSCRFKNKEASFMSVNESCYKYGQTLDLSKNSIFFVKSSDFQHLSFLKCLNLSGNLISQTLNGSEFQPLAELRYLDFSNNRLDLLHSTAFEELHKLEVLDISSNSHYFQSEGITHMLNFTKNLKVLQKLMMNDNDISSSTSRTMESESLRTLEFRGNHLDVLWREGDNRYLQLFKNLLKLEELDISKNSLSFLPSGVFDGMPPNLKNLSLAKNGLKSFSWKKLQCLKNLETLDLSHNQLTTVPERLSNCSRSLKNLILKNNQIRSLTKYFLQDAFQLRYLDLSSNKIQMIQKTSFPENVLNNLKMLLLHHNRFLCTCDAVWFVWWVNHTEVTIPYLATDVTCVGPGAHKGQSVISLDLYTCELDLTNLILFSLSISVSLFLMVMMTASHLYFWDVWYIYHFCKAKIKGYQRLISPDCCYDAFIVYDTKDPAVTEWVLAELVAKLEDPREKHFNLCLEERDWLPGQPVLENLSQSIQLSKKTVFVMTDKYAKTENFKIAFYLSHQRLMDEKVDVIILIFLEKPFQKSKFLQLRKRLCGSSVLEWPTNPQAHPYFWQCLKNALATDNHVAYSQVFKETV
Description: as §1, §2, §3

T1 sequence (O60603 21-784): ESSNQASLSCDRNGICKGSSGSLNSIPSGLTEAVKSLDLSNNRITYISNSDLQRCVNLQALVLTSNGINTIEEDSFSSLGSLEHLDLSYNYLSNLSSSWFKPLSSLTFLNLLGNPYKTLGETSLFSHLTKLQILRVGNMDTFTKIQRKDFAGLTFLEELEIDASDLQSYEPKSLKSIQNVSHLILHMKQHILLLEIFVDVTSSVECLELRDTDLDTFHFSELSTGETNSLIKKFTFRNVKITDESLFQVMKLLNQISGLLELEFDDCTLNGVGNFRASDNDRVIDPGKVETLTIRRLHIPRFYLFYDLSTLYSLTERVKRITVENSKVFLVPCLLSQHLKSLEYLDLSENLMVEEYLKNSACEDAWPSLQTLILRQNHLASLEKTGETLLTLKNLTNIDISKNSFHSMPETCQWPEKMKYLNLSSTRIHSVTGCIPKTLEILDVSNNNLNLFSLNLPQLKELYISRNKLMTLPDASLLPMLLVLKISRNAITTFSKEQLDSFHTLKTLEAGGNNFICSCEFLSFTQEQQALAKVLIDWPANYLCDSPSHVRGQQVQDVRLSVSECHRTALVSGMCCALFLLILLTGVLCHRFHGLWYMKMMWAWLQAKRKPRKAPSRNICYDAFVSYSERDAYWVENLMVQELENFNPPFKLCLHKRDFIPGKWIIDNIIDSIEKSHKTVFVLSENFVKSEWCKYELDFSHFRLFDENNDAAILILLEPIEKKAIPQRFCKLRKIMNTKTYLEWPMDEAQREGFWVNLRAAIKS

Row | Compound | ability to activate hTLR2 [1] | ability to complex pDNA (retardation of pDNA migration in agarose gel) [2] | ability to activate mTLR7 [3] | Mean Diameter [4] | PDI [4] | ability to activate endogenous TLR2 and TLR7 in RAW-Blue Cells [5] | ability to activate hTLR7 [6]
1 | CCCCCCCCCCCCCCCC(=O)OCC(CSC[C@H](N)C(=O)NCCCC[C@H](NC(=O)c1ccc(Cn2c(O)nc3c(N)nc(NCCCC)nc32)cc1)C(=O)NCCCNCCCCNCCCN)OC(=O)CCCCCCCCCCCCCCC (stereo partly drawn) [CL486, (6R,13S)-6,27-diamino-13-(4-((6-amino-2-(butylamino)-8-hydroxy-9H-purin-9-yl)methyl)benzamido)-7,14-dioxo-4-thia-8,15,19,24-tetraazaheptacosane-1,2-diyl dipalmitate] | activate hTLR2 | inability to migrate through an agarose gel | activate mTLR7 | 202.0 nm and 209.2 nm and 179.7 nm | 0.234 and 0.236 and 0.232 | activate endogenous TLR2 and TLR7 | activate hTLR7
2 | CCCCCCCCCCCCCCCC(=O)N[C@@H](CSCC(COC(=O)CCCCCCCCCCCCCCC)OC(=O)CCCCCCCCCCCCCCC)C(=O)N[C@@H](CO)C(=O)N[C@@H](CCCCNC(=O)c1ccc(Cn2c(O)nc3c(N)nc(NCCCC)nc32)cc1)C(=O)N[C@@H](CCCCN)C(=O)N[C@@H](CCCCN)C(=O)N[C@@H](CCCCN)C(=O)O (stereo partly drawn) [CL537, (2S,5S,8S,11S,14S,17R)-11-(4-(4-((6-amino-2-(butylamino)-8-hydroxy-9H-purin-9-yl)methyl)benzamido)butyl)-2,5,8-tris(4-aminobutyl)-14-(hydroxymethyl)-4,7,10,13,16,24-hexaoxo-17-palmitamido-21-(palmitoyloxy)-23-oxa-19-thia-3,6,9,12,15-pentaazanonatria contan-1-oic acid] | activate hTLR2 | inability to migrate through an agarose gel | activate mTLR7 |  |  | activate endogenous TLR2 and TLR7 | activate hTLR7
3 | CCCCCCCCCCCCCCCC(=O)OCC(CSC[C@H](N)C(=O)NCCCNCCCCNCCCN)OC(=O)CCCCCCCCCCCCCCC (stereo partly shown) [CL419] |  |  |  | 147.0 nm and 148.5 nm and 156.7 nm | 0.185 and 0.193 and 0.210 |  | 
4 | CCCCCCCCCCCCCCCC(=O)N[C@@H](CSCC(COC(=O)CCCCCCCCCCCCCCC)OC(=O)CCCCCCCCCCCCCCC)C(=O)N[C@@H](CO)C(=O)N[C@@H](CCCCN)C(=O)N[C@@H](CCCCNC(=O)c1ccc(Cn2c(O)nc3c(N)nc(NCCCC)nc32)cc1)C(=O)N[C@@H](CCCCN)C(=O)N[C@@H](CCCCN)C(=O)O (stereo partly drawn) [CL536, (2S,5S,8S,11S,14S,17R)-8-(4-(4-((6-amino-2-(butylamino)-8-hydroxy-9H-purin-9-yl)methyl)benzamido)butyl)-2,5,11-tris(4-aminobutyl)-14-(hydroxymethyl)-4,7,10,13,16,24-hexaoxo-17-palmitamido-21-(palmitoyloxy)-23-oxa-19-thia-3,6,9,12,15-pentaazanonatriacontan-1-oic acid] | activate hTLR2 | inability to migrate through an agarose gel | activate mTLR7 |  |  | activate endogenous TLR2 and TLR7 | activate hTLR7
